Assay results as given in paper PMC3242765, “Inhibitors of Alphavirus Entry and Replication Identified with a Stable Chikungunya Replicon Cell Line and Virus-Based Assays” (PLoS ONE, 2011).
Several values for one entry are separate records, joined by “and”; a condition that tells them apart may be missing. Identical values can stand only once. Counter-ions that a name gives are not always drawn.

Experiments:
[1] = tested on: CHIKV replicon; experiment: microbe, parasite or virus in culture; format: cell-based, Chikungunya virus (CHIKV)
[2] = tested on: SFV-Rluc

Row | Compound | CHIKV replicon % left [1] | SFV replication % left (surviving fraction, remaining percentage of SFV replication) [2]
1 | Cc1cc(=O)oc2cc(O)cc(O)c12 [5,7-Dihydroxy-4-methylcoumarin] | 78.1% | 66.7%
2 | O=c1ccc2cc(O)c(O)cc2o1 [Esculetin] | 89.2% | 103.6%
3 | CC(C)(C)NCC(O)COc1cccc2c1CC(O)C(O)C2 (centres unmarked) [Nadolol] | 63.3% | 60.5%
4 | CC(C(=O)[O-])c1cccc(Oc2ccccc2)c1.CC(C(=O)[O-])c1cccc(Oc2ccccc2)c1.[Ca+2] (centres unmarked) [Fenoprofen calcium salt] | 78.3% | 87.6%
5 | O=C1CN=C(c2ccccc2)c2cc([N+](=O)[O-])ccc2N1 [Nitrazepam] | 98.8% | 46.0%
6 | CC1=C2[C@H]3OC(=O)[C@@H](C)[C@@H]3CC[C@@]2(C)C=CC1=O [Santonin] | 101.9% | 99.9%
7 | COc1ccc2ccc(=O)oc2c1 [Herniarin] | 102.2% | 53.2%
8 | NCC(O)c1cccc(O)c1 (centres unmarked) [Norfenefrine] | 96.6% | 126.3%
9 | CN[C@H](C)[C@@H](O)c1ccc(O)cc1 [p-Hydroxyephedrine] | 100.6% | 94.4%
10 | CC(CCc1ccccc1)NCC(O)c1ccc(O)c(C(N)=O)c1 (centres unmarked) [Labetalol hydrochloride] | 100.1% | 72.5%
11 | O=c1cc(O)c2ccccc2o1 [4-Hydroxycoumarin] | 95.4% | 100.2%
12 | CN(C)CC[C@@H](c1ccc(Cl)cc1)c1ccccn1 [Dexchlorpheniramine maleate] | 51.7% | 68.1%
13 | O=C(O)c1cc(O)c(O)c(O)c1 [Gallic acid] | 88.9% | 148.8%
14 | O=C(O)/C=C\C(=O)O.O=C(O)/C=C\C(=O)O.OCCN1CCN(CCCN2c3ccccc3Sc3ccc(C(F)(F)F)cc32)CC1 [Fluphenatzinemaleate] | 104.3% | 98.9%
15 | CCCCNC(=O)NS(=O)(=O)c1ccc(N)cc1 [1-Butyl-3-sulfanilylurea [carbutamide]] | 67.5% | 83.9%
16 | O=C(c1ccccc1)c1cc2c(ccc3ccccc32)oc1=O [3-Benzoylbenzo(F)coumarin] | 68.0% | 39.9%
17 | CC[C@H]1CN2CCc3cc(OC)c(OC)cc3[C@@H]2C[C@@H]1C[C@H]1NCCc2cc(OC)c(OC)cc21 [Emetine dihydrochloride] | 80.9% | 63.1%
18 | CC(Cc1ccc(O)cc1)NCC(O)c1cc(O)cc(O)c1 (centres unmarked) [Fenoterol hydrobromide] | 88.4% | 106.6%
19 | N[C@@H](Cc1ccc(O)c(O)c1)C(=O)O.N[C@@H](Cc1ccc(O)c(O)c1)C(=O)O | 54.8% | 43.6%
20 | (-)-Epicatechin gallate | 100.5% | 94.8%
21 | Cc1cc(=O)n(-c2ccccc2)n1C [Antipyrine] | 102.6% | 60.1%
22 | Saccharin sodium | 81.5% | 105.0%
23 | COc1cc(O)c2c(=O)c(O)c(-c3ccc(O)c(O)c3)oc2c1 [Rhamnetin] | 94.7% | 119.1%
24 | Cc1nnc(NS(=O)(=O)c2ccc(N)cc2)s1 [Sulfamethylthiadiazole] | 92.1% | 89.6%
25 | CCOC(=O)c1ccc(N)cc1 [Benzocaine] | 85.4% | 43.4%
26 | NS(=O)(=O)c1cc2c(cc1Cl)N=CNS2(=O)=O [Chlorothiazide] | 82.1% | 90.3%
27 | CC(=O)Nc1ccc(OCC(O)CNC(C)C)cc1 (centres unmarked) [Practolol] | 61.5% | 117.3%
28 | Cc1cc(=O)oc2c3c4c(cc12)CCCN4CCC3 [Coumarin 102] | 65.4% | 34.6%

Row | Compound | CHIKV replicon % left [1] | SFV replication % left (surviving fraction, remaining percentage of SFV replication) [2]
29 | COc1cc(/C=C/C(=O)O)cc(OC)c1O [Sinapic acid] | 51.4% | 22.0%
30 | C[C@H](N)[C@H](O)c1cccc(O)c1.O=C(O)C(O)C(O)C(=O)O [Metaraminol bitartrate salt] | 69.1% | 96.5%
31 | CC(C)(C)NCC(O)c1ccc(O)c(CO)c1.CC(C)(C)NCC(O)c1ccc(O)c(CO)c1.O=S(=O)(O)O (racemic) [(+/-) Salbutamol sulfate] | 71.9% | 105.0%
32 | Cl.c1ccc(CC2=NCCN2)cc1 [Tolazoline, hydrochloride] | 102.1% | 76.0%
33 | CN(C)CCCN1c2ccccc2Sc2cccnc21.Cl [Prothipendyl hydrochloride] | 11.2% | 7.4%
34 | CC(C)(CO)[C@@H](O)C(=O)NCCC(=O)O [Calcium pantothenate] | 89.1% | 67.9%
35 | O=c1c(O)c(-c2ccc(O)c(O)c2)oc2cc(O)c(O)c(O)c12 [Quercetagetin] | 85.2% | 90.2%
36 | C#C[C@]1(O)CC[C@H]2[C@@H]3CCC4=CC(=O)CC[C@@H]4[C@H]3CC[C@@]21C [Norethindrone] | 97.1% | 107.8%
37 | C[N+]1(C)[C@@H]2CC[C@H]1C[C@@H](OC(=O)C(CO)c1ccccc1)C2 (some centres unmarked) [Methylatropine bromide] | 54.9% | 70.9%
38 | O=c1ccc2ccccc2o1 [Coumarin] | 85.0% | 68.8%
39 | Cc1cc(N)c2ccccc2[n+]1CCCCCCCCCC[n+]1c(C)cc(N)c2ccccc21 [Dequalinium chloride] | 39.4% | 62.5%
40 | CCCCNc1ccc(C(=O)OCCN(C)C)cc1 [Cainopan, p-Butylaminobenzoyldimethylaminoethanol] | 82.2% | 63.8%
41 | COc1cc2ccc(=O)oc2cc1O [Scopoletin] | 95.4% | 81.9%
42 | O=C(O)c1ccccc1C(=O)Nc1ccc(S(=O)(=O)Nc2nccs2)cc1 [Phthalylsulfathiazole] | 100.5% | 113.7%
43 | Nc1ccc(S(=O)(=O)Nc2ccccn2)cc1 [Sulfapyridine] | 79.9% | 95.0%
44 | CCOc1ccc(NC(C)=O)cc1 [Phenacetin] | 100.8% and 94.3% | 71.8% and 80.6%
45 | COc1cc2oc(=O)ccc2cc1O [Isoscopoletin] | 99.4% | 120.6%
46 | CC(=O)NS(=O)(=O)c1ccc(NC(=O)c2ccccc2C(=O)O)cc1 [Phthalylsulfacetamide] | 85.4% | 110.6%
47 | O=c1oc2ccccc2c(O)c1Cc1c(O)c2ccccc2oc1=O [Dicumarol] | 43.0% | 65.6%
48 | CC(C)NCC(O)c1ccc(NS(C)(=O)=O)cc1 (centres unmarked) [Sotalol hydrochloride] | 80.1% | 100.5%
49 | Cn1cnc2c1c(=O)[nH]c(=O)n2C [Theobromine] | 70.2% | 112.1%
50 | CCC1(c2ccccc2)C(=O)NC(=O)NC1=O [Phenobarbital] | 43.2% | 58.6%
51 | CC(C)NCC(O)c1ccc(O)c(O)c1.Cl (centres unmarked) | 99.3% | 112.5%
52 | O=C(O)Cc1cccc(O)c1 [3-hydroxyphenylacetic acid] | 54.1% | 110.8%
53 | CC(C)(C)NCC(O)COc1cccc2c1CCC(=O)N2 (centres unmarked) [Carteolol hydrochloride] | 78.1% | 67.2%
54 | O=c1cc(C(F)(F)F)c2cc3c4c(c2o1)CCCN4CCC3 [Coumarin 153] | 96.1% | 52.6%
55 | C[C@H]1O[C@@H](O[C@H]2[C@@H](O)C[C@H](O[C@H]3[C@@H](O)C[C@H](O[C@H]4CC[C@@]5(C)[C@H](CC[C@@H]6[C@@H]5C[C@@H](O)[C@]5(C)[C@@H](C7=CC(=O)OC7)CC[C@]65O)C4)O[C@@H]3C)O[C@@H]2C)C[C@H](O)[C@@H]1O [Digoxin] | 94.3% | 141.9%
